Patent publication US20070244030A1, “Method for Assessing Cancerous State” (SUMITOMO CHEMICAL COMPANY, LIMITED, priority 2003, published 2007)

Assays:
Neurofilament3 gene [1] = experiment: Real Time PCR of Neurofilament3 mRNA in PANC-1 cultured with methylation inhibitor; format: cell-based, human; conditions: PANC-1 pancreatic cancer cell line, cells recovered on fourth day, not detected without inhibitor
Protocol: (§1) Two kinds of human-derived pancreatic cancer cell lines (PANC-1 and HPAC) were seeded at a density of about 6×10^5 cells/10 cm plate, and cultured using an exclusively used medium. On the first day after seeding, 5-aza-2′-deoxytidine (manufactured by Sigma) (hereinafter, referred to as 5Aza-dC) which is a methylation inhibitor was added to a medium to give the concentration of 0.5 or 1 μM. Twenty four hours after addition of 5Aza-Dc, the medium was exchanged with the aforementioned medium to which no 5Aza-dC was added, and culturing was continued. Then, on the third day after seeding, 5Aza-dC was added to the medium similarly. […]
(§2) A reaction solution of PCR was used which was obtained by mixing 50 ng of a cDNA as a template, each 1 μl of two kinds of 10 pmol/μl aforementioned primer solution, 4 μl of 2.5 mM dNTP, 4 μl of 5 mM dUTP, 5 μl of 10×SYBR Green PCR Buffer, 6 μof 25 mM MgCl2 and 0.3 μl of a 5 U/μl thermostable DNA polymerase (AmpliTaq Gold), 0.5 μl of AmpEraseUNG and adding sterilized ultrapure water thereto to an amount of solution of 50 μl. […] When a DNA derived from mRNA of Neurofilament3 gene and GAPDH gene was amplified, after the reaction solution Was retained at 95° C. for 10 minutes, Real Time PCR was performed at the conditions under which each cycle was 30 seconds at 95° C., 30 seconds at 59° C. and 30 seconds at 72° C. to quantitate Neurofilament3 gene and GAPDH gene.

Neurofilament3 gene [2] = experiment: Real Time PCR of Neurofilament3 mRNA in HPAC cultured with methylation inhibitor; format: cell-based, human; conditions: HPAC pancreatic cancer cell line, cells recovered on fourth day, not detected without inhibitor
Protocol: as §1, §2

[3] = 0.5 μM 5Aza-dC added on first and third day
[4] = 1 μM 5Aza-dC added on first and third day

Measured: DNA derived from a mRNA of Neurofilament3 gene (expression of Neurofilament3 gene)

Nc1ncn([C@H]2C[C@H](O)[C@@H](CO)O2)c(=O)n1 [5Aza-dC, 5-aza-2′-deoxytidine]
detected: Neurofilament3 gene [1]; [3] | Neurofilament3 gene [1]; [4] | Neurofilament3 gene [2]; [3] | Neurofilament3 gene [2]; [4]
